The values below come from patent EP1969935A1, “3.4-disubstituted phenoxy phenylamidines and their use as fungicides” (Bayer CropScience AG, priority 2007, dated 2008).

The nature of one data set: logP determination. Type of data set: physicochemical. The settings on record: pH 2.3; given in the preparation examples; read-out: log P (pH2.3).
Another data set has as its system Podosphaera leucotricha. The data set can be described thus: Podosphaera test (apple) / protective. Type of data set: in vivo. The settings on record: 100ppm active ingredient, apple plants sprayed protectively, evaluated 10 days after inoculation; 0% = control, 100% = no infestation. An excerpt:
Beispiel 1: Podosphaera-Test (Apfel) / protektiv
(§1) Zur Herstellung einer zweckmäßigen Wirkstoffzubereitung vermischt man 1 Gewichtsteil Wirkstoff mit den angegebenen Mengen Lösungsmittel und Emulgator und verdünnt das Konzentrat mit Wasser auf die gewünschte Konzentration.
Zur Prüfung auf protektive Wirksamkeit werden junge Pflanzen mit der Wirkstoffzubereitung in der angegebenen Aufwandmenge besprüht. Nach Antrocknen des Spritzbelages werden die Pflanzen mit einer wäßrigen Sporensuspension des Apfelmehltauerregers Podosphaera leucotricha inokuliert. Die Pflanzen werden dann im Gewächshaus bei ca. 23°C und einer relativen Luftfeuchtigkeit von ca. 70% aufgestellt.
(§2) 10 Tage nach der Inokulation erfolgt die Auswertung. Dabei bedeutet 0% ein Wirkungsgrad, der demjenigen der Kontrolle entspricht, während ein Wirkungsgrad von 100% bedeutet, daß kein Befall beobachtet wird.

In the next data set the test system is Sphaerotheca fuliginea. The data set is described as follows: Sphaerotheca test (cucumber) / protective. As to conditions: 100ppm active ingredient, cucumber plants sprayed protectively, evaluated 7 days after inoculation; 0% = control, 100% = no infestation. The data set is classed as in vivo.
From the text: Beispiel 2: Sphaerotheca-Test (Gurke) / protektiv
as §1
Zur Prüfung auf protektive Wirksamkeit werden junge Pflanzen mit der Wirkstoffzubereitung in der angegebenen Aufwandmenge besprüht. Nach Antrocknen des Spritzbelages werden die Pflanzen mit einer wäßrigen Sporensuspension von Sphaerotheca fuliginea inokuliert. Die Pflanzen werden dann bei ca. 23°C und einer relativen Luftfeuchtigkeit von ca. 70% im Gewächshaus aufgestellt.
7 Tage nach der Inokulation erfolgt die Auswertung. Dabei bedeutet 0% ein Wirkungsgrad, der demjenigen der Kontrolle entspricht, während ein Wirkungsgrad von 100% bedeutet, daß kein Befall beobachtet wird.

Another data set concerns Uromyces appendiculatus. The data set can be described thus: Uromyces test (bean) / protective. Type of data set: in vivo. As to conditions: 10ppm active ingredient, bean plants sprayed protectively, evaluated 10 days after inoculation; 0% = control, 100% = no infestation.
From the text: In diesem Test zeigen die erfindungsgemäßen Verbindungen 10, 11, 12 und 13 (siehe Tab.IV) bei einer Konzentration an Wirkstoff von 100ppm einen Wirkungsgrad von 70% oder mehr. Beispiel 3: Uromyces - Test (Bohne) / protektiv
as §1
Zur Prüfung auf protektive Wirksamkeit werden junge Pflanzen mit der Wirkstoffzubereitung in der angegebenen Aufwandmenge besprüht. Nach Antrocknen des Spritzbelages werden die Pflanzen mit einer wäßrigen Sporensuspension des Bohnenrosterregers Uromyces appendiculatus inokuliert und verbleiben dann 1 Tag bei ca. 20°C und 100% relativer Luftfeuchtigkeit in einer Inkubations-kabine.
Die Pflanzen werden dann im Gewächshaus bei ca. 21°C und einer relativen Luftfeuchtigkeit von ca. 90% aufgestellt.
as §2

Data set [1] relates to Erysiphe graminis f.sp. hordei. The data set can be described thus: Erysiphe test (barley) / protective. The data set is classed as in vivo. As to conditions: 1000 ppm active ingredient, barley plants sprayed protectively, evaluated 7 days after inoculation; 0% = control, 100% = no infestation.
From the text: Beispiel 4: Erysiphe-Test (Gerste) / protektiv
as §1
Zur Prüfung auf protektive Wirksamkeit besprüht man junge Pflanzen mit der Wirkstoffzubereitung in der angegebenen Aufwandmenge.
Nach Antrocknen des Spritzbelages werden die Pflanzen mit Sporen von Erysiphe graminis f.sp. hordei bestäubt.
Die Pflanzen werden in einem Gewächshaus bei einer Temperatur von ca. 20°C und einer relativen Luftfeuchtigkeit von ca. 80 % aufgestellt, um die Entwicklung von Mehltaupusteln zu begünstigen.
7 Tage nach der Inokulation erfolgt die Auswertung. Dabei bedeutet 0 % ein Wirkungsgrad, der demjenigen der Kontrolle entspricht, während ein Wirkungsgrad von 100 % bedeutet, daß kein Befall beobachtet wird.

For a further data set, the system named is Alternaria solani. The data set can be described thus: Alternaria test (tomato) / protective. Type of data set: in vivo. The settings on record: 500ppm active ingredient, tomato plants sprayed protectively, inoculated 1 day after treatment, evaluated 7 days after inoculation; 0% = control, 100% = no infestation.
From the text: Beispiel 5: Alternaria-Test (Tomate) / protektiv
as §1
Zur Prüfung auf protektive Wirksamkeit bespritzt man junge Tomatenpflanzen mit der Wirkstoffzubereitung in der angegebenen Aufwandmenge. 1 Tag nach der Behandlung werden die Pflanzen mit einer Sporensuspension von Alternaria solani inokuliert und stehen dann 24h bei 100% rel. Feuchte und 20°C. Anschließend stehen die Pflanzen bei 96% rel. Luftfeuchtigkeit und einer Temperatur von 20 °C.
7 Tage nach der Inokulation erfolgt die Auswertung. Dabei bedeutet 0 % ein Wirkungsgrad, der demjenigen der Kontrolle entspricht, während ein Wirkungsgrad von 100 % bedeutet, dass kein Befall beobachtet wird.

Regarding `Cc1cc(Oc2ccc3c(c2)CCCC3)c(C)cc1N` [4-(5,6,7,8-Tetrahydro-2-napthoxy)-2,5-dimethylanilin], the logD in “logP determination” was found to be 3.08.
Still for that read-out and setting: for `Cc1cc([N+](=O)[O-])c(C)cc1Oc1ccc2c(c1)CCCC2` [4-(5,6,7,8-Tetrahydro-2-napthoxy)-2,5-dimethylnitrobenzol] the value was 5.86.
Consider `CCN(C)C=Nc1cc(C)c(Oc2ccc3c(c2)CCCC3)cc1C` [Verbindung 13, N-E-thyl-N-methyl-N'-[4-(5,6,7,8-tetrahydro-2-napthoxy)-2,5-dimethylphenyl]form-amidin], for which the Wirkungsgrad (with Podosphaera leucotricha; in the data set on Sphaerotheca fuliginea; in the data set on Uromyces appendiculatus; in data set [1]; in the data set on Alternaria solani) was not below 70% each time.
